Values quoted from earlier work, collected in patent US6676956B1, “Oil-in-water emulsion for protecting human organs against peroxidation” (Fresenius Kabi Austria GmbH, priority 1998, dated 2004).

Tests used:
[1] = per 1 g of the form
skeletal muscles = details: 500 mg given directly before reperfusion

**Q.** With `Cc1c(C)c2c(c(C)c1O)CCC(C)(CCCC(C)CCCC(C)CCCC(C)C)O2` (racemic) [all-rac-α-tocopherol, 2,5,7, 8 tetramethyl-2-(4′,8′,12′-trimethyltridecyl)chroman-6-ol] as the compound, how does the “effectiveness of 1 g corresponds to that of RRR-α-tocopherol” value [1] read?
**A.** 0.74 g

**Q.** And the “α-tocopherol level in the cell-associated aortic endothelium” value (lipidperoxidation; 0.5 mg/day via central vein catheter for 3 days)?
**A.** significant increase

**Q.** Which results are given for vitamin E?
**A.** vitamin E concentration in the plasma (lipidperoxidation; 0.5 mg/day intravenously for 3 days vs 1.0 mg/day orally): significantly higher; concentration of TBARS in the plasma (lipidperoxidation; 0.5 mg/day intravenously for 3 days vs control animals): significantly lower

**Q.** For `Cc1c(C)c2c(c(C)c1O)CCC(C)(CCCC(C)CCCC(C)CCCC(C)C)O2` (single isomer, unassigned) [SRR-stereoisomer, 2,5,7, 8 tetramethyl-2-(4′,8′,12′-trimethyltridecyl)chroman-6-ol], which “effectiveness of 1 g corresponds to that of RRR-α-tocopherol” value [1] is on record?
**A.** 0.31 g

**Q.** For `CC(=O)Oc1c(C)c(C)c2c(c1C)CCC(C)(CCCC(C)CCCC(C)CCCC(C)C)O2` (racemic) [all-rac-tocopherolacetate], which “increase in lipid peroxides in the serum (TBARS)” value (skeletal muscles) is on record?
**A.** prevented

**Q.** And the “increase in serum creatine-phosphokinase during the reperfusion phase” value (skeletal muscles)?
**A.** suppressed

**Q.** And the ischaemia-reperfusion damage (skeletal muscles)?
**A.** reduced
